What was measured:
[1] = Drying of the hydrate salt: loss of the water molecules (IR); type: physicochemical
Description: In this case, the precipitation was performed by adding 2.0 volumes of either MeOH, EtOH, acetone or IPA at room temperature. After overnight stirring at room temperature, the suspensions were filtered at room temperature, and the cakes were washed by percolation with 0.4 volumes of H2O/solvent (1:1), and with 0.4 volumes of the corresponding solvent. […]
This phenomenon was observed when recording the IR spectra of the synthesized and dried products, as none of them show the stretching and bending bands typical of water molecules (FIG. 2).

[2] = Stability test: loss on drying with time; type: physicochemical
Excerpt: The present inventors confirmed the stability of the hydrate resulting from the process of the invention determining the loss on drying with time.
To that end a well-mixed sample of the sodium tungstate hydrate resulting from Example 2, was subjected to the following protocol. Dry clean glass-stopper, shallow weighing bottle under the same conditions to be employed in the determination. Cool to room temperature in a desiccator and take the weight accurately (W1) g. Transfer to the bottle 1 g of the sample, cover it and accurately weigh the bottle and the contents (W2) g. Place the loaded bottle in the drying chamber (oven), remove the stopper and leave it also in the chamber. Dry the sample to the specified time and temperature to a constant mass (105° C.). After drying is completed, open the drying chamber, close the bottle promptly and allow it to cool to room temperature (where applicable) in a desiccator before weighing. Weigh the bottle and the contents (W3) g. Calculation:
The loss on drying should be not more than 15% (w/w).

## O.O.[Na+].[Na+].[O]=[W](=[O])([O-])[O-] [Na2WO4·2H2O, sodium tungstate dihydrate]
[1]; drying processes at 100-110° C., IR spectra
  stability of the waters of hydration on drying: dehydration processes of the tungsten salt were detected
[1]; vacuum dried at a mild temperature of about 50° C.
  fraction of the starting salt that lost the molecules of water: ~94%
[2]; 6-month 40° C./75% HR
  loss on drying with time: the loss was maintained
[2]; 18-month test at 25° C./60% HR
  loss on drying with time: the loss was maintained
[2]; sodium tungstate hydrate resulting from Example 2, dried at 105° C. to constant mass, limit not more than 15% (w/w)
  loss on drying: below 15%

— patent publication US20260097073A1, “PROCESS FOR THE PREPARATION OF TUNGSTEN (VI) SALT HYDRATES” (OXOLIFE, S.L., priority 2022, published 2026)
